No end group written: not given here.
Assays:
VIPR1 = molecular target: T1, VIPR1 (Homo sapiens, UniProt P32241); assay: cAMP Hunter cell line functional assay, agonist mode (DiscoveRx HitHunter cAMP XS+); type: cell-based; details: for Mean RLU: Cell Line VIPR1, Mode Agonist, Readout cAMP
T1 sequence (P32241 31-457): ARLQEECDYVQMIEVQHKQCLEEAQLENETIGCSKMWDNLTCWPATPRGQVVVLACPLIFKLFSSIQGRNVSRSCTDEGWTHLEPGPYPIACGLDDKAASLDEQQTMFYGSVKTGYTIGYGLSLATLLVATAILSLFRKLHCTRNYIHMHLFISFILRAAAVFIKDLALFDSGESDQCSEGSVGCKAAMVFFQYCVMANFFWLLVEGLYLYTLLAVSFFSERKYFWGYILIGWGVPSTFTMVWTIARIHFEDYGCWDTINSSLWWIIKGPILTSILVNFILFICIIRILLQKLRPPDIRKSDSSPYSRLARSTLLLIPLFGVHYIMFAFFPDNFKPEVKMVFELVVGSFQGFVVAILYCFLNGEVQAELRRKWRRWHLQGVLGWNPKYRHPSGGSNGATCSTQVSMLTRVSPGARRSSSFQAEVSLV
Method: (§1) Once it was established that the cells were healthy and growing normally, cells were passaged from flasks using cell dissociation reagent buffer and seeded into white walled clear bottom 384-well microplates for compound profiling. For profiling, cells were seeded at a density of 10,000 cells per well in a total volume of 20 μL and were allowed to adhere and recover overnight prior to compound addition. cAMP modulation was determined using the DiscoveRx HitHunter cAMP XS+ assay.
(§2) For profiling compound in agonist mode, the cells were incubated in the presence of compound at 37° C. for 30 minutes. […] After appropriate compound incubation, assay signal was generated through incubation with DiscoverX lysis cocktail according to the manufacturers standard protocol. Dose curves were plotted using GraphPad Prism or Activity Base. Percentage activity is calculated using the following formula: % Activity=100%×(mean RLU of test sample−mean RLU of vehicle control)/(mean RLU of MAX control−mean RLU of vehicle control).

VIPR2 = molecular target: T2, VIPR2 (Homo sapiens, UniProt P41587); assay: as above; type: cell-based; details: for Mean RLU: Cell Line VIPR2, Mode Agonist, Readout cAMP
T2 construct: host or cells: cAMP Hunter cell lines (CHO-K1 is named only in the prophetic assay)
T2 sequence (P41587 24-438): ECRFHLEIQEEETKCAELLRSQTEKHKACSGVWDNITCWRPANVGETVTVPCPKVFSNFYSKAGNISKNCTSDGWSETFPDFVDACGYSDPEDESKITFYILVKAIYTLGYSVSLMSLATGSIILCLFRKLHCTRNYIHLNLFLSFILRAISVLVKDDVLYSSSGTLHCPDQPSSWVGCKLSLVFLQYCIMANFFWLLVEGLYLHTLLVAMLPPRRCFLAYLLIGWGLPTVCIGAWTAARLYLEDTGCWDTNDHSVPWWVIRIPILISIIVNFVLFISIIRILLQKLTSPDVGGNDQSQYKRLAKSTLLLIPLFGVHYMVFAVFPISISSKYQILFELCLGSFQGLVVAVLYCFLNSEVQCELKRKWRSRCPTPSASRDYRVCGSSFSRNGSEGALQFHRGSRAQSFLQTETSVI
Method: as §1, §2

[1] = in the blood stream; cited from earlier work
calcitonin (CT) receptor = details: cited from earlier work
adrenomedullin receptors = adrenomedullin receptors (Homo sapiens, UniProt Q16602); details: cited from earlier work
[2] = molecular target: calcitonin-gene related peptide (CGRP) receptors (Homo sapiens, UniProt O60894+Q16602); details: cited from earlier work
G-actin monomers = details: 1:1 ratio; read-out: Kd, sequestration of G-actin monomers; cited from earlier work
Glucagon receptor = molecular target: T3, Glucagon receptor (Rattus norvegicus, UniProt P30082); details: cited from earlier work
T3 construct: from tissue; host or cells: rat liver membranes

[3] = system: vasoactive intestinal peptide (VIP); details: read-out: IC50, selective VIP antagonist; cited from earlier work
secretin receptors = secretin receptors (Homo sapiens, UniProt P47872); details: cited from earlier work
GRF receptors = molecular target: T4, GRF receptors (Homo sapiens, UniProt Q02643); details: cited from earlier work
T4 sequence (Q02643 23-423): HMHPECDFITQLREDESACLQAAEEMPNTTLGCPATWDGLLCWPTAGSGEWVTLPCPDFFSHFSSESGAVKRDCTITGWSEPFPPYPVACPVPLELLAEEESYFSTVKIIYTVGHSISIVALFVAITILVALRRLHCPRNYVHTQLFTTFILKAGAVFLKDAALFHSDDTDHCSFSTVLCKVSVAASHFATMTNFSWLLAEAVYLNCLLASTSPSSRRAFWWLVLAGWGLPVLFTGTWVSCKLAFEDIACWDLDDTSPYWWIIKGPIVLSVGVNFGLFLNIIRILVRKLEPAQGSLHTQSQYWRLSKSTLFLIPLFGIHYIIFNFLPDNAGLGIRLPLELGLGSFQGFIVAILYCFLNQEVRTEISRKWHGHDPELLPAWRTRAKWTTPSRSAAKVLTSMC

glucagon receptors = glucagon receptors (Homo sapiens, UniProt P47871); details: cited from earlier work
glucagon receptors, sequence (P47871 26-477): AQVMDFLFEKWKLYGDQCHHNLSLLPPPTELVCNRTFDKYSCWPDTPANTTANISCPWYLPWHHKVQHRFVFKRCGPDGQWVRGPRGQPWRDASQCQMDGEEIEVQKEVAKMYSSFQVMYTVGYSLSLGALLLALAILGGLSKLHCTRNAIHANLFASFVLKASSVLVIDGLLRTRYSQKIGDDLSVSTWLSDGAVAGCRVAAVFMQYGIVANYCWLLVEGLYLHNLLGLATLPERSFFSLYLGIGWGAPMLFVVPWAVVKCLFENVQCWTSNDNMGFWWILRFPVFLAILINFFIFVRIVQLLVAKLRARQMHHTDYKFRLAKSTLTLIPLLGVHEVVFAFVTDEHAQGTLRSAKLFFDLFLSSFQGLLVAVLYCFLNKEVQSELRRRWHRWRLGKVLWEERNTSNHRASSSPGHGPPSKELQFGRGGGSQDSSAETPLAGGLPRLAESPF

T3 sequence (P30082 27-485): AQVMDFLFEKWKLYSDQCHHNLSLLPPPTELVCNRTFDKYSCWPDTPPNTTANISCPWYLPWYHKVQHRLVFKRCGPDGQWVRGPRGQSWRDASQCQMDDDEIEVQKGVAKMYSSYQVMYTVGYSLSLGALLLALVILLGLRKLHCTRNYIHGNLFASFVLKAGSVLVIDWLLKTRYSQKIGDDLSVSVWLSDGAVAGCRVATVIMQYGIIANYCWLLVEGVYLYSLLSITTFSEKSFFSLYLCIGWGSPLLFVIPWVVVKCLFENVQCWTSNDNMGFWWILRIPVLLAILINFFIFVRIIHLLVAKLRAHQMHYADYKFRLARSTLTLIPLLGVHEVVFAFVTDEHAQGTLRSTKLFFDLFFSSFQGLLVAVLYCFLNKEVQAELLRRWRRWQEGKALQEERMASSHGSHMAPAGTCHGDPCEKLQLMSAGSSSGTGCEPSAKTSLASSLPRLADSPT
adrenomedullin receptors, sequence (Q16602 23-461): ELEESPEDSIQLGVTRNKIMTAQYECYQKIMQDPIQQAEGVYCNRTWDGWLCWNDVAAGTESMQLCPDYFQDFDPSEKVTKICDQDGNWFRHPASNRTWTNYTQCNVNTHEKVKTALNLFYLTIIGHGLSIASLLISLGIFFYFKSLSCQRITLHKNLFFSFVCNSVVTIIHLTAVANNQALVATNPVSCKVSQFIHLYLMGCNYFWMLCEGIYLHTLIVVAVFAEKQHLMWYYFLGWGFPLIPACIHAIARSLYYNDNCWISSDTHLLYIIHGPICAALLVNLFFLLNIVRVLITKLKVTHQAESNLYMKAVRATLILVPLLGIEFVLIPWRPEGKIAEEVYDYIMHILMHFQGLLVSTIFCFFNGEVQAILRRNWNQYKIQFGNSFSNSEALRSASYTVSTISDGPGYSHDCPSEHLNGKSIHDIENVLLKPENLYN
calcitonin-gene related peptide (CGRP) receptors, sequence (Q16602 23-461): as above
calcitonin-gene related peptide (CGRP) receptors, sequence (O60894 27-148 partner): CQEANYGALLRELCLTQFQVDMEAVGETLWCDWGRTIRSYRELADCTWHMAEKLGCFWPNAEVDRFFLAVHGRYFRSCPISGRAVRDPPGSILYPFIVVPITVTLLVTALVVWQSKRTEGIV
secretin receptors, sequence (P47872 23-440): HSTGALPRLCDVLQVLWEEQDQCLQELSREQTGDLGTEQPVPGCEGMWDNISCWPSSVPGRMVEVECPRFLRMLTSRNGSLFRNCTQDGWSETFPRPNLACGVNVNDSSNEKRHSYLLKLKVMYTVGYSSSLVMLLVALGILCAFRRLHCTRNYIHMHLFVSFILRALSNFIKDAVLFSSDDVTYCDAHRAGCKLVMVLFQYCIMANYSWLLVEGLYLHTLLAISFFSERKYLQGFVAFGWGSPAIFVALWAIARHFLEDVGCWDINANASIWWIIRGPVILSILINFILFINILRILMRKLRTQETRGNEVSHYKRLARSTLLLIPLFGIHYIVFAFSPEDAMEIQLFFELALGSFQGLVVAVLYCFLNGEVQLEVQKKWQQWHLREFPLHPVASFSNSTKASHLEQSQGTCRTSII

For `CC[C@H](C)[C@H](NC(=O)[C@H]1CCC[C@@H]1NC(=O)[C@H](CC(N)=O)NC(=O)[C@H](CC(C)C)NC(=O)[C@H](Cc1ccc(O)cc1)NC(=O)[C@H]1CNC[C@@H]1NC(=O)[C@H](CCCCN)NC(=O)[C@@H](NC(=O)[C@H]1CCC[C@@H]1NC(=O)[C@H](CC(C)C)NC(=O)[C@H](CCC(N)=O)NC(=O)[C@H](CCCCN)NC(=O)[C@H]1CNC[C@@H]1NC(=O)[C@H](CC(C)C)NC(=O)[C@H](CCCNC(=N)N)NC(=O)[C@H]1CCC[C@@H]1NC(=O)[C@H](Cc1ccc(O)cc1)NC(=O)[C@H](CC(N)=O)NC(=O)[C@H](CC(=O)O)NC(=O)[C@@H](NC(=O)[C@H](Cc1ccccc1)NC(=O)[C@@H](NC(=O)[C@H](C)NC(=O)[C@H](CC(=O)O)NC(=O)[C@H](CO)NC(=O)[C@@H](N)Cc1c[nH]cn1)C(C)C)[C@@H](C)O)C(C)C)C(=O)N[C@@H](CC(C)C)C(=O)NC(CC(N)=O)CC(N)=O` [Compound 8, HSDAVFTDNYXRLZKQLXVKZYLNXILN], the “Mean RLU” value (VIPR1; [Compound] 1.00E−08 M) was 13700.0 RLU, the “Mean RLU” value (VIPR1; [Compound] 1.00E−09 M) was 10600.0 RLU and the “Mean RLU” value (VIPR1; [Compound] 1.00E−10 M) was 9060.0 RLU. For the same molecule, the “Mean RLU” value (VIPR1; [Compound] 1.00E−11 M) was 10500.0 RLU, the “Mean RLU” value (VIPR1; [Compound] 1.00E−12 M) was 10340.0 RLU and the “Mean RLU” value (VIPR1; [Compound] 5.00E−08 M) was 95460.0 RLU. For the same molecule, the “Mean RLU” value (VIPR1; [Compound] 5.00E−09 M) was 13200.0 RLU, the “Mean RLU” value (VIPR1; [Compound] 5.00E−10 M) was 9820.0 RLU and the “activation of VIPR1” value (VIPR1; agonist mode, FIG. 3) was “fully activate”. The “Mean RLU” value (VIPR2; [Compound] 1.00E−07 M) was 8920.0 RLU, the “Mean RLU” value (VIPR2; [Compound] 1.00E−08 M) was 9560.0 RLU and the “Mean RLU” value (VIPR2; [Compound] 1.00E−09 M) was 8560.0 RLU. The “Mean RLU” value (VIPR2; [Compound] 1.00E−10 M) was 7560.0 RLU, the “Mean RLU” value (VIPR2; [Compound] 1.00E−11 M) was 9280.0 RLU and the “Mean RLU” value (VIPR2; [Compound] 1.00E−12 M) was 8300.0 RLU. For the same molecule, the “Mean RLU” value (VIPR2; [Compound] 5.00E−07 M) was 10200.0 RLU, the “Mean RLU” value (VIPR2; [Compound] 5.00E−08 M) was 9200.0 RLU and the “Mean RLU” value (VIPR2; [Compound] 5.00E−09 M) was 8560.0 RLU. For the same molecule, the “Mean RLU” value (VIPR2; [Compound] 5.00E−10 M) was 9820.0 RLU, the “interaction with VIPR2” value (VIPR2; agonist mode) was “does not interact substantially” and the “activation of VIPR2” value (VIPR2; agonist mode, FIG. 3) was “not activate”.
In the case of `CC[C@H](C)[C@H](NC(=O)[C@H](CO)NC(=O)[C@H](CC(N)=O)NC(=O)[C@H](CC(C)C)NC(=O)[C@H](Cc1ccc(O)cc1)NC(=O)[C@H](CCCCN)NC(=O)[C@H](CCCCN)NC(=O)[C@@H](NC(=O)[C@H](C)NC(=O)[C@H](CCSC)NC(=O)[C@H](CCC(N)=O)NC(=O)[C@H](CCCCN)NC(=O)[C@H](CCCN=C(N)N)NC(=O)[C@H](CC(C)C)NC(=O)[C@H](CCCN=C(N)N)NC(=O)[C@@H](NC(=O)[C@H](Cc1ccc(O)cc1)NC(=O)[C@H](CC(N)=O)NC(=O)[C@H](CC(=O)O)NC(=O)[C@@H](NC(=O)[C@H](Cc1ccccc1)NC(=O)[C@@H](NC(=O)[C@H](C)NC(=O)[C@H](CC(=O)O)NC(=O)[C@H](CO)NC(=O)[C@@H](N)Cc1c[nH]cn1)C(C)C)[C@@H](C)O)[C@@H](C)O)C(C)C)C(=O)N[C@@H](CC(C)C)C(=O)N[C@@H](CC(N)=O)C(N)=O` [VIP], the half-life [1] is given as “about two”.
In the case of “Calcitoninreceptor-stimulating peptide-1 (SCNTATCMTHRLVGLLSRSGSMVRSNLLPTKMGFKVFG-NH2; ends and bridges not checked; UniProt Q862B1 81-118, looked up)”, the “ED50, stimulation of cAMP formation” value (calcitonin (CT) receptor; calcitonin (CT) receptor) is given as 0.2 nM, the “Potency in stimulating cAMP formation relative to CT” value (calcitonin (CT) receptor; greater than CT) is given as 350 fold and the “Activity at adrenomedullin receptors” value (adrenomedullin receptors) is given as “Displays no activity at calcitonin-gene related peptide (CGRP) and adrenomedullin”. The “Activity at CGRP receptors” value [2] was “Displays no activity at calcitonin-gene related peptide (CGRP) and adrenomedullin”.
In the case of Thymosin β4, the Kd (G-actin monomers) is listed as 700 to 1000 nM.
In the case of des-His1-{Glu9}-Glucagon (1-29) amide, the “Agonist activity at the glucagon receptor” value (Glucagon receptor) is given as “adenylyl cyclase activation in rat liver membranes); displays no agonist activity” and the “pA2 for inhibition of glucagon-induced adenylyl cyclase activation” value (Glucagon receptor; rat liver membranes) is given as “(Glucagon receptor antagonist (pA2 = 7.2 for inhibition of glucagon-induced”.
In the case of {D-p-Cl-Phe6,Leu17}-VIP, the IC50 [3] is given as 126 nM, the “Activity on secretin receptors” value (secretin receptors) is given as “Displays no activity on glucagon, secretin or GRF receptors.)” and the “Activity on GRF receptors” value (GRF receptors) is given as “Displays no activity on glucagon, secretin or GRF receptors.)”. The “Activity on glucagon receptors” value (glucagon receptors) was “Displays no activity on glucagon, secretin or GRF receptors.)”.

Source: patent publication US10772934B2 (Longevity Biotech, Inc., priority 2010, dated 2020)
